Laboratory results reported in patent US20090130064A1, “DIFFERENTIATION OF STEM CELLS AND STABILIZATION OF PHENOTYPICAL PROPERTIES OF PRIMARY CELLS” (priority 2004, published 2009).

Columns and labels:
HDAC = details: cited from earlier work
Pak1 = assay: Western blotting of Pak1 in primary rat hepatocytes; format: cell-based; details: 50 μM, sustained treatment, EGF-stimulated
Excerpt: Male outbred Sprague-Dawley rats (200-300 g, Iffa Credo, Brussels, Belgium) were kept under controlled environmental conditions (12-hr light-dark cycle) and fed a standard diet (Animafabo A04, water ad libitum). Hepatocytes were isolated by a two-step collagenase perfusion as described (De Smet et al. In ‘Methods in Molecular Biology, Vol. 107: Cytochrome P450 Protocols’, Philips I R and Shephard E A, eds., pp 295-301, Humana Press, Totowa, 1998). Cell liability was >90% as determined by trypan blue exclusion. Cells (0.4×10^5 cells/cm^2) were plated in MEM/M199 (3:1), containing BSA (1 mg/ml), bovine insulin (10 μg/ml), L-glutamine (2 mM), FBS (10% v/v) and antibiotics (7.3 IU/ml benzyl penicillin, 50 μg/ml streptomycin sulphate, 50 μg/ml kanamycin monosulphstep and 10 μg/ml sodium ampicillin). Four hours after plating, serum-containing medium was removed and fresh serum-free medium was added to the cultures. Culture medium was refreshed daily. […]
Total cell extracts were prepared as described previously (Papeleu et al. J Hepatol 39: 374-382, 2003) and proteins (25 or 50 μg per lane) were separated electrophoretically by SDS-PAGE and electroblotted onto nitrocellulose membranes (Amersham Pharmacia Biotech, Buckinghamshire, UK). […] Proteins were detected using the ECL detection system (Amersham Pharmacia Biotech, Buckinghamshire, UK) according to the manufacturer's recommendations.

CYP 2B = assay: Western blot of CYP 2B in primary rat hepatocytes; format: cell-based; details: 50 μM
Excerpt: Male outbred Sprague-Dawley rats (200-300 g, Iffa Credo, Brussels, Belgium) were kept under controlled environmental conditions (12-hr light-dark cycle) and fed a standard diet (Animalabo A04, water ad libitum). Hepatocytes were isolated by a two-step collagenase perfusion as described (De Smet et al. In ‘Methods in Molecular Biology, Vol. 107: Cytochrome P450 Protocols’, Philips I R and Shephard E A, eds., pp 295-301, Humana Press, Totowa, 1998). Cell viability was >90% as determined by trypan blue exclusion. Cells (0.4×10^5 cells/cm^2) were plated in MEM/M199 (3:1), containing BSA (1 mg/ml), bovine insulin (10 μg/ml), L-glutamine (2 mM), FBS (10% v/v) and antibiotics (7.3 IU/ml benzyl penicillin, 50 μg/ml streptomycin sulphate, 50 μg/ml kanamycin monosulphate and 10 μg/ml sodium ampicillin). Four hours after plating, serum-containing medium was removed and fresh serum-free medium was added to the cultures. Culture medium was refreshed daily. EGF (50 ng/ml) was added 4 hours after plating. A 100 mM stock solution of 4-Me2N-BAVAH was prepared in ethanol.

primary rat hepatocytes = assay: De novo protein synthesis by [3H]-leucine incorporation; format: cell-based; details: co-treatment with EGF
Protocol: De novo protein synthesis was determined by [^3H]-leucine incorporation. [^3H]-Leucine (2 μCi/ml final concentration) was added to the hepatocyte cultures 68 hours after plating. Four hours later, cells were washed twice with ice-cold PBS and lyzed in 40% cold trichloroacetic acid. After 2 additional washes in 10% cold trichloroacetic acid, the pellet was solubilized in NaOH (0.1N). The amount of [^3H]-leucine was subsequently measured by liquid scintillation.

GSTM = GSTM iso-enzyme activity in cultured rat hepatocytes; format: cell-based; details: TSA started at 4 h; day 4 and 7
Excerpt: (§1) Hepatocytes were isolated from male Sprague-Dawley rats by a two-step collagenase perfusion as described (De Smet et al. In ‘Methods in Molecular Biology, Vol. 107: Cytochrome P450 Protocols’, Philips IR and Shephard E A, eds., p.p 295-301, Humana Press, Totowa, 1998). Hepatocytes were cultivated in monolayer cultures with Willam's E Medium (WE) for 7 days. […] The maintenance of differentiation characteristics was studied after 2, 4, and 7 days (D2, D4, D7) of culture.
(§2) In order to investigate Phase II biotransformation, total cytosolic glutathione S-transferase (GST) activity and activities of individual GSTA, GSTP, and GSTM iso-enzymes were measured using standard techniques known in the art. (i.e., measuring conjugation of reduced glutathione with 1-chloro-2,4-dinitrobenzene for total GST; measuring conjugation of reduced glutathione with 7-chloro-4-nitrobenzo-2-oxa-1,3-diazole for GSTA activity; measuring conjugation of reduced glutathione with ethacrynic acid for GSTP activity; and measuring conjugation of reduced glutathione with 1,2-dichloro-4-nitrobenzene for GSTM activity).

CYP 2B1/2 = CYP 2B1/2 activity (penthoxyresorufin conversion) in cultured rat hepatocytes; format: cell-based
Excerpt: as §1
Phase I biotransformation was assessed by means of activity measurements of the microsomal cytochrome P450 (CYP) 1A1 and 2B1/2 iso-enzymes, using standard techniques known in the art (i.e., measuring conversion of ethoxyresorufin into hydroxyresorufin for CYP 1A1 and conversion of penthoxyresorufin to hydroxyresorufin for CYP 2B1/2) (Burke et al. Drug Metab Dispos 2:583-588, 1974). Microsomes were prepared from freshly isolated and hepatocytes cultured for 7 days according to Hales et al. (Biochem Pharmacol 26:555-556, 1977).

GSTA = GSTA iso-enzyme activity in cultured rat hepatocytes; format: cell-based; details: TSA treatment
Excerpt: as §1, §2

histone H4 = assay: Acetylated histone H4 by immunocytochemistry in rat hepatocytes; format: cell-based; details: 1 μM TSA
Protocol: In all conditions, the hepatocytes were cultivated as a monolayer configuration, and samples were taken at days 1, 4 and 7 (D1, D4, D7) of the cultivation time.
Hepatocytes were fixed with cold ethanol, peremeabilised with Triton X-100 (Sigma) and blocked with non-fatty milk. Following incubation with appropriate concentrations of primary and secondary antibodies (FITC or TRITC labeled), samples were mounted with DAPI-containing Vectashield (Vector Laboratories). Detection was performed by fluorescence microscopy (Leica DMR/XA).

| expression of CYP 2B (CYP 2B) | SMILES | HDAC inhibition, concentration range (HDAC) | cellular levels of Pak1 (Pak1) | de novo protein synthesis (primary rat hepatocytes) | activity of GSTM iso-enzyme (GSTM) | activity of CYP 2B1/2 versus EtOH-treated controls (CYP 2B1/2; 1 μM TSA starting at 0 h or 4 h, day 4 and 7) | CYP 2B1 Activity (CYP 2B1/2; 7-day conventionally cultured adult rat hepatocytes, 1 μm TSA) | activity of GSTA iso-enzyme (GSTA) | acetylation of histone H4 (histone H4) |
| --- | --- | --- | --- | --- | --- | --- | --- | --- | --- |
| Increased Expression | CN(C)c1ccc(C(=O)NCCCCC(=O)NO)cc1 [4-Me2N-BAVAH, 5-(4-dimethylaminobenzoyl)-aminovaleric acid hydroxamide] | micromolar range | decrease in the cellular levels of Pak1 | not further enhanced | – | – | – | – | – |
| – | CC(C=CC(=O)NO)=CC(C)C(=O)c1ccc(N(C)C)cc1 (stereo not drawn) [TSA] | – | – | – | stimulated | significantly higher | 4.1 ± 0.7 pmol resorufin/minute mg microsomal protein | substantially unaffected | hyperacetylation |
